Measurements: patent US20240360177A1, “PEPTIDES WITH ANTIMICROBIAL ACTIVITIES” (priority 2021, published 2024)
Converted amounts (≈) assume the structure as drawn. Read-outs that look alike come from different tables or passages of the source. Non-standard residues stand in square brackets, D forms with d. Residues, ends and D or L forms follow the SMILES beside them. *: point of attachment. Morpholinoacetyl = O=C(CN1CCOCC1)*; hArg = N=C(N)NCCCC[C@H](N)C(=O)O; Inp = O=C(O)C1CCNCC1; AEA = NCCOCC(=O)O; Ava = NCCCCC(=O)O

Key:
C. neoformans = conditions: 72 h
Scedosporium spp. = conditions: 72 h
C. gattii = conditions: 72 h
[1] = N = 15 strains, 24 h (Table 13)
[2] = N = 15 strains, 48 h (Table 13)

| Compound | MIC C. neoformans (C. neoformans) [µg/mL] | MIC C. albicans (C. albicans; 24 h) [µg/mL] | MIC C. glabrata (C. glabrata; 24 h) [µg/mL] | MIC C. dubliniensis (C. dubliniensis; 24 h) [µg/mL] | MIC C. parapsilosis (C. parapsilosis; 24 h) [µg/mL] | MIC C. tropicalis (C. tropicalis; 24 h) [µg/mL] | MIC C. auris (C. auris; 24 h) [µg/mL] | MIC C. gattii (C. gattii) [µg/mL] | MIC C. krusei (C. krusei; 24 h) [µg/mL] | other results |
| --- | --- | --- | --- | --- | --- | --- | --- | --- | --- | --- |
| N=C(N)NCCC[C@@H](N)C(=O)N[C@@H](CCCNC(=N)N)C(=O)NCCCCC(=O)N[C@H](CCCNC(=N)N)C(=O)N[C@@H](CCCNC(=N)N)C(=O)NCCCCC(=O)N[C@H](CCCNC(=N)N)C(=O)N[C@@H](CCCNC(=N)N)C(=O)N[C@H](CCCNC(=N)N)C(=O)NCCCCC(=O)N[C@H](CCCNC(=N)N)C(=O)N[C@@H](CCCNC(=N)N)C(=O)N[C@H](CCCNC(=N)N)C(N)=O [SEQ ID NO: 26, rR-(Ava)-rR-(Ava)-rRr-(Ava)-rRr-NH2] (H-[dR]R[Ava][dR]R[Ava][dR]R[dR][Ava][dR]R[dR]-NH2) | 16 (≈ 8.53 µM) | 8 (≈ 4.26 µM) | 8 (≈ 4.26 µM) | 4 (≈ 2.13 µM) | 0.5 (≈ 0.266 µM) | 2 (≈ 1.07 µM) | >32 | 4 (≈ 2.13 µM) | 8 (≈ 4.26 µM) | MIC Range Scedosporium spp. (Scedosporium spp.): 16 to 32 µg/mL; MIC Range Lomentospora prolificans (Lomentospora prolificans): 32 µg/mL (≈ 17.1 µM) |
| N=C(N)NCCC[C@@H](N)C(=O)N[C@@H](CCCNC(=N)N)C(=O)N[C@H](CCCNC(=N)N)C(=O)N[C@H](CCCNC(=N)N)C(=O)N[C@@H](CCCNC(=N)N)C(=O)N[C@H](CCCNC(=N)N)C(=O)N[C@H](CCCNC(=N)N)C(=O)N[C@@H](CCCNC(=N)N)C(=O)N[C@H](CCCNC(=N)N)C(=O)N[C@@H](CCCNC(=N)N)C(=O)N[C@H](CCCNC(=N)N)C(=O)N[C@@H](CCCNC(=N)N)C(=O)N[C@H](CCCNC(=N)N)C(=O)N[C@@H](CCCNC(=N)N)C(N)=O [14 Polyarginine, rRrrRrrRrRrRrR-NH2, reference compound] |  |  |  |  |  |  |  |  |  | Activity at 24 h MIC50 against Candida spp. (Candida spp.; [1]): 0.5 µg/mL; Activity at 24 h MIC90 against Candida spp. (Candida spp.; [1]): 8 µg/mL; Activity at 48 h MIC50 against Candida spp. (Candida spp.; [2]): 0.5 µg/mL; Activity at 48 h MIC90 against Candida spp. (Candida spp.; [2]): >32 µg/mL |
| rRr-(Igl)-rRr-(Igl)-rRrR-(Igl)-rRrR-NH2 [SEQ ID NO: 75] |  |  |  |  |  |  |  |  |  | MIC C. albicans (C. albicans): 0.5 µg/mL; MIC C. glabrata (C. glabrata): 0.5 µg/mL; MIC C. dubliniensis (C. dubliniensis): 0.5 µg/mL; MIC C. parapsilosis (C. parapsilosis): 0.5 µg/mL; MIC C. tropicalis (C. tropicalis): 0.5 µg/mL; MIC C. auris (C. auris): 0.5 µg/mL; MIC C. krusei (C. krusei): 0.5 µg/mL |
| N=C(N)NCCC[C@@H](N)C(=O)N[C@@H](CCCNC(=N)N)C(=O)N[C@H](CCCNC(=N)N)C(=O)NCCOCC(=O)N[C@H](CCCNC(=N)N)C(=O)N[C@@H](CCCNC(=N)N)C(=O)N[C@H](CCCNC(=N)N)C(=O)NCCOCC(=O)N[C@H](CCCNC(=N)N)C(=O)N[C@@H](CCCNC(=N)N)C(=O)N[C@H](CCCNC(=N)N)C(=O)N[C@@H](CCCNC(=N)N)C(=O)NCCOCC(=O)N[C@H](CCCNC(=N)N)C(=O)N[C@@H](CCCNC(=N)N)C(=O)N[C@H](CCCNC(=N)N)C(=O)N[C@@H](CCCNC(=N)N)C(N)=O [SEQ ID NO: 52, rRr-(Aea)-rRr-(Aea)-rRrR-(Aea)-rRrR-NH2] (H-[dR]R[dR][AEA][dR]R[dR][AEA][dR]R[dR]R[AEA][dR]R[dR]R-NH2) |  | 0.5 (≈ 0.199 µM) | 0.5 (≈ 0.199 µM) | 0.5 (≈ 0.199 µM) | 0.25 (≈ 0.0997 µM) | 0.5 (≈ 0.199 µM) | 1 (≈ 0.399 µM) |  | 0.5 (≈ 0.199 µM) |  |
| N=C(N)NCCC[C@H](NC(=O)[C@@H](CCCNC(=N)N)NC(=O)[C@H](CCCNC(=N)N)NC(=O)[C@@H](CCCNC(=N)N)NC(=O)[C@@H]1CCCN1C(=O)[C@H](CCCNC(=N)N)NC(=O)[C@@H](CCCNC(=N)N)NC(=O)[C@H](CCCNC(=N)N)NC(=O)[C@@H](CCCNC(=N)N)NC(=O)[C@@H]1CCCN1C(=O)[C@@H](CCCNC(=N)N)NC(=O)[C@H](CCCNC(=N)N)NC(=O)[C@@H](CCCNC(=N)N)NC(=O)[C@@H]1CCCN1C(=O)[C@@H](CCCNC(=N)N)NC(=O)[C@H](CCCNC(=N)N)NC(=O)[C@@H](CCCNC(=N)N)NC(=O)CN1CCOCC1)C(N)=O [SEQ ID NO: 59, MorpholineCH2C(O)NH-rRr-P-rRr-P-rRrR-P-rRrR-NH2] (Morpholinoacetyl-[dR]R[dR]P[dR]R[dR]P[dR]R[dR]RP[dR]R[dR]R-NH2) |  | 0.5 (≈ 0.191 µM) | 0.5 (≈ 0.191 µM) | 0.5 (≈ 0.191 µM) | 0.5 (≈ 0.191 µM) | 0.5 (≈ 0.191 µM) | 4 (≈ 1.53 µM) |  | 2 (≈ 0.763 µM) |  |

Further lines, with some results ahead:

| MIC C. neoformans (C. neoformans) [µg/mL] | MIC C. albicans (C. albicans; 24 h) [µg/mL] | MIC C. glabrata (C. glabrata; 24 h) [µg/mL] | MIC C. dubliniensis (C. dubliniensis; 24 h) [µg/mL] | MIC C. parapsilosis (C. parapsilosis; 24 h) [µg/mL] | MIC C. tropicalis (C. tropicalis; 24 h) [µg/mL] | MIC C. auris (C. auris; 24 h) [µg/mL] | MIC C. gattii (C. gattii) [µg/mL] | MIC C. krusei (C. krusei; 24 h) [µg/mL] | Compound | other results |
| --- | --- | --- | --- | --- | --- | --- | --- | --- | --- | --- |
| 8 (≈ 4.28 µM) | 0.5 (≈ 0.267 µM) | 1 (≈ 0.535 µM) | 1 (≈ 0.535 µM) | 0.25 (≈ 0.134 µM) | 0.5 (≈ 0.267 µM) | >32 | 4 (≈ 2.14 µM) | 2 (≈ 1.07 µM) | N=C(N)NCCC[C@@H](N)C(=O)N[C@@H](CCCNC(=N)N)C(=O)N1CCC[C@H]1C(=O)N[C@H](CCCNC(=N)N)C(=O)N[C@@H](CCCNC(=N)N)C(=O)N[C@H](CCCNC(=N)N)C(=O)N1CCC[C@H]1C(=O)N[C@H](CCCNC(=N)N)C(=O)N[C@@H](CCCNC(=N)N)C(=O)N[C@H](CCCNC(=N)N)C(=O)N1CCC[C@H]1C(=O)N[C@H](CCCNC(=N)N)C(=O)N[C@@H](CCCNC(=N)N)C(N)=O [SEQ ID NO: 71, rR-P-rRr-P-rRr-P-rR-NH2] (H-[dR]RP[dR]R[dR]P[dR]R[dR]P[dR]R-NH2) | MIC Range Scedosporium spp. (Scedosporium spp.): 4 to 8 µg/mL; MIC Range Lomentospora prolificans (Lomentospora prolificans): 8 µg/mL (≈ 4.28 µM) |
|  | 0.25 (≈ 0.104 µM) | 0.5 (≈ 0.209 µM) | 0.25 (≈ 0.104 µM) | 0.25 (≈ 0.104 µM) | 0.25 (≈ 0.104 µM) | 1 (≈ 0.417 µM) |  | 0.5 (≈ 0.209 µM) | N=C(N)NCCC[C@@H](N)C(=O)N[C@@H](CCCNC(=N)N)C(=O)N[C@H](CCCNC(=N)N)C(=O)N[C@@H](CCCNC(=N)N)C(=O)N[C@H](CCCNC(=N)N)C(=O)N1CCC[C@H]1C(=O)N[C@H](CCCNC(=N)N)C(=O)N[C@@H](CCCNC(=N)N)C(=O)N[C@H](CCCNC(=N)N)C(=O)N[C@@H](CCCNC(=N)N)C(=O)N[C@H](CCCNC(=N)N)C(=O)N1CCC[C@H]1C(=O)N[C@H](CCCNC(=N)N)C(=O)N[C@@H](CCCNC(=N)N)C(=O)N[C@H](CCCNC(=N)N)C(=O)N[C@@H](CCCNC(=N)N)C(N)=O [SEQ ID NO: 61, rRrRr-P-rRrRr-P-rRrR-NH2] (H-[dR]R[dR]R[dR]P[dR]R[dR]R[dR]P[dR]R[dR]R-NH2) | Activity at 24 h MIC50 against Candida spp. (Candida spp.; 24 h): 0.5 µg/mL; Activity at 24 h MIC90 against Candida spp. (Candida spp.; 24 h): 1 µg/mL; Activity at 48 h MIC50 against Candida spp. (Candida spp.; 48 h): 0.5 µg/mL; Activity at 48 h MIC90 against Candida spp. (Candida spp.; 48 h): 16 µg/mL |
| 0.25 (≈ 0.0967 µM) | 1 (≈ 0.387 µM) | 1 (≈ 0.387 µM) | 1 (≈ 0.387 µM) | 0.5 (≈ 0.193 µM) | 1 (≈ 0.387 µM) | 0.5 (≈ 0.193 µM) | 0.25 (≈ 0.0967 µM) | 1 (≈ 0.387 µM) | N=C(N)NCCCC[C@H](NC(=O)[C@@H](CCCNC(=N)N)NC(=O)[C@H](CCCCNC(=N)N)NC(=O)[C@@H](CCCNC(=N)N)NC(=O)CCCCNC(=O)[C@H](CCCCNC(=N)N)NC(=O)[C@@H](CCCNC(=N)N)NC(=O)[C@H](CCCCNC(=N)N)NC(=O)[C@@H](CCCNC(=N)N)NC(=O)CCCCNC(=O)[C@@H](CCCNC(=N)N)NC(=O)[C@H](CCCCNC(=N)N)NC(=O)[C@@H](CCCNC(=N)N)NC(=O)CCCCNC(=O)[C@@H](CCCNC(=N)N)NC(=O)[C@H](CCCCNC(=N)N)NC(=O)[C@H](N)CCCNC(=N)N)C(N)=O [SEQ ID NO: 89, r(Har)r-(Ava)-r(Har)r-(Ava)-r(Har)r(Har)-(Ava)-r(Har)r(Har)-NH2] (H-[dR][hArg][dR][Ava][dR][hArg][dR][Ava][dR][hArg][dR][hArg][Ava][dR][hArg][dR][hArg]-NH2) |  |
|  | 0.25 (≈ 0.12 µM) | 0.5 (≈ 0.24 µM) | 0.25 (≈ 0.12 µM) | 0.25 (≈ 0.12 µM) | 0.5 (≈ 0.24 µM) | 4 (≈ 1.92 µM) |  | 0.5 (≈ 0.24 µM) | N=C(N)NCCC[C@@H](N)C(=O)N[C@@H](CCCNC(=N)N)C(=O)N[C@H](CCCNC(=N)N)C(=O)N[C@@H](CCCNC(=N)N)C(=O)N1CCC[C@H]1C(=O)N[C@H](CCCNC(=N)N)C(=O)N[C@@H](CCCNC(=N)N)C(=O)N[C@H](CCCNC(=N)N)C(=O)N[C@@H](CCCNC(=N)N)C(=O)N1CCC[C@H]1C(=O)N[C@H](CCCNC(=N)N)C(=O)N[C@@H](CCCNC(=N)N)C(=O)N[C@H](CCCNC(=N)N)C(=O)N[C@@H](CCCNC(=N)N)C(N)=O [SEQ ID NO: 67, rRrR-P-rRrR-P-rRrR-NH2] (H-[dR]R[dR]RP[dR]R[dR]RP[dR]R[dR]R-NH2) |  |
|  | 0.5 (≈ 0.197 µM) | 0.5 (≈ 0.197 µM) | 0.5 (≈ 0.197 µM) | 0.25 (≈ 0.0985 µM) | 0.5 (≈ 0.197 µM) | 0.5 (≈ 0.197 µM) |  | 1 (≈ 0.394 µM) | N=C(N)NCCC[C@@H](N)C(=O)N[C@@H](CCCNC(=N)N)C(=O)N[C@H](CCCNC(=N)N)C(=O)N1CCC(C(=O)N[C@H](CCCNC(=N)N)C(=O)N[C@@H](CCCNC(=N)N)C(=O)N[C@H](CCCNC(=N)N)C(=O)N2CCC(C(=O)N[C@H](CCCNC(=N)N)C(=O)N[C@@H](CCCNC(=N)N)C(=O)N[C@H](CCCNC(=N)N)C(=O)N[C@@H](CCCNC(=N)N)C(=O)N3CCC(C(=O)N[C@H](CCCNC(=N)N)C(=O)N[C@@H](CCCNC(=N)N)C(=O)N[C@H](CCCNC(=N)N)C(=O)N[C@@H](CCCNC(=N)N)C(N)=O)CC3)CC2)CC1 [SEQ ID NO: 74, rRr-(Inp)-rRr-(Inp)-rRrR-(Inp)-rRrR-NH2] (H-[dR]R[dR][Inp][dR]R[dR][Inp][dR]R[dR]R[Inp][dR]R[dR]R-NH2) |  |
